The nature of this series: Human HepG2 cell viability assay in 384 well format. It counts as toxicity, cell-based. The arrangement: dose 125 nL, time 70.5 hour; concentration not given beside the values. The conditions noted are these: HepG2 cells, read-out: Inhibition.
Consider `Cc1cccnc1N1CCN(Cc2cc(O)c3cccc(F)c3n2)CC1`, for which the cytotoxicity at 70.5 h was -0.745%.

`O=C1COC2(COCCN(c3ccccn3)C2)CN1c1cccc(F)c1` (stereo not drawn): the cytotoxicity at 70.5 h is -9.76%.

With `Cc1ncc2c(n1)CCN(Cc1ncc(C(C)(C)C)o1)C2`, the cytotoxicity at 70.5 h was -11.4%.

For the molecule `CCc1nc(CN2CCCC(NCc3cc(C)no3)C2)no1` (stereo not drawn), the cytotoxicity at 70.5 h was -8.45%.

For the molecule `CC(C(=O)N(C)Cc1ccc(Br)o1)n1cncn1` (stereo not drawn), the cytotoxicity at 70.5 h was -1.04%.

As to `CCOc1ccccc1CN(C)C(=O)CN1C(=O)OC[C@@H]1C(C)C`, the cytotoxicity at 70.5 h came to 15.5%.

In the case of `Cc1cc(CCC(=O)N2CCOCC2)ccc1Br`, the cytotoxicity at 70.5 h is -5.28%.

With `Cc1occc1C(=O)N1CCc2ncnc(C3CCOC3)c2CC1` (stereo not drawn), the cytotoxicity at 70.5 h was -12.9%.

In the case of `COc1cc(CSc2nnc(C)n2CC(N)=O)ccc1SC`, the cytotoxicity at 70.5 h was -118%.

In the case of `Cc1cccc2c1nc(CCO)n2-c1ccc(N)nc1`, the cytotoxicity at 70.5 h is -8.34%.

Consider `NCc1cn(CC2CCCN(C(=O)NCCc3ccc(F)cc3)C2)nn1` (stereo not drawn), for which the cytotoxicity at 70.5 h came out at 22.7%.

Turning to `O=C(CCc1nc2cccnc2[nH]1)Nc1ccc2c(c1)OCC(=O)N2`, the cytotoxicity at 70.5 h was -10.5%.

On to `CCn1c(Cn2cncn2)nnc1C1CCN(Cc2ccc(C)o2)CC1`, for which the cytotoxicity at 70.5 h was -8.85%.

In the case of `CN1N=C(C(=O)N2CCCC(CCc3ccccc3F)C2)CCC1=O` (stereo not drawn), the cytotoxicity at 70.5 h is -5.83%.

As for `N#Cc1ccc(N2CCC3(CC2)CC(OCc2cccnc2)CO3)cc1` (stereo not drawn), the cytotoxicity at 70.5 h is -1.15%.

Regarding `Cc1nccn1-c1ccc(NC(=O)C2CCCN2Cc2ccoc2)cc1` (stereo not drawn), the cytotoxicity at 70.5 h was -6.93%.

For the molecule `Cc1nn(C2CCCCC2)c2nc(C(C)(C)CN3CCOCC3)[nH]c12`, the cytotoxicity at 70.5 h is -6.99%.

Consider `CCSCCC(=O)NCc1cnn(-c2ccc(F)cc2F)c1`, for which the cytotoxicity at 70.5 h worked out at 7.31%.

Consider `Cc1ccc(NC(=O)C2CSCN2C(=O)c2cnn(C)c2)c(C)c1` (stereo not drawn), for which the cytotoxicity at 70.5 h was -4.99%.

`Cc1ccc(C)c(S(=O)(=O)NC(=O)c2ccc(C)[nH]c2=O)c1`: the cytotoxicity at 70.5 h was -4.64%.

For the molecule `O=C(c1ccc2[nH]nnc2c1)N1CCC(Nc2cccnn2)CC1`, the cytotoxicity at 70.5 h was determined as 10.7%.

Regarding `O=C1COc2ccc(C(=O)NS(=O)(=O)c3cc(F)ccc3F)cc2N1`, the cytotoxicity at 70.5 h was -8.54%.

For the molecule `Cc1ccsc1CN1CCC(n2cc(C(O)c3ccccc3)nn2)CC1` (stereo not drawn), the cytotoxicity at 70.5 h is -8.81%.

Turning to `CCC(CC)c1cc(C(=O)N2CCN(C(C#N)C(C)C)CC2)on1` (stereo not drawn), the cytotoxicity at 70.5 h was -6.08%.

As to `CCOCCOC(C)C(=O)Nc1ccc2[nH]c(C)cc2c1` (stereo not drawn), the cytotoxicity at 70.5 h is -8.04%.

Consider `COc1ccccc1S(=O)(=O)N1CCN(C)[C@@H]2CS(=O)(=O)C[C@@H]21`, for which the cytotoxicity at 70.5 h turned out to be 24.4%.

With `C[C@@H]1CN(C(=O)c2cn(CCN3CCCCC3)nn2)C[C@H](C)O1`, the cytotoxicity at 70.5 h is -0.236%.

Regarding `O=C(O)[C@]12CCCN(Cc3nccs3)[C@@H]1CCN(c1cnccn1)C2`, the cytotoxicity at 70.5 h was -5.49%.

For `N#Cc1cccc(NC2CC(=O)N(Cc3cccc(F)c3)C2)n1` (stereo not drawn), the cytotoxicity at 70.5 h is -8.43%.

Regarding `O=C(CCCc1nc(C2CC2)no1)N1CCCC(c2ccn[nH]2)C1` (stereo not drawn), the cytotoxicity at 70.5 h was -7.72%.

On to `Cc1nc(C)n(CC2CCCN2Cc2cc(-c3cccs3)on2)n1` (stereo not drawn), for which the cytotoxicity at 70.5 h is -13.7%.

For the molecule `O=C(C1=CCCC1)N1CC[C@]2(C[C@H](OCc3cccnc3)CO2)C1`, the cytotoxicity at 70.5 h was -12.5%.

For `Cc1cc(C)c2c(N(C)CC3CCOC3)ncnc2n1` (stereo not drawn), the cytotoxicity at 70.5 h was -4.45%.

For `CN(C(=O)c1ccc(C2CCCO2)s1)C1CCS(=O)(=O)CC1` (stereo not drawn), the cytotoxicity at 70.5 h is 2.73%.

As to `Cn1c(=O)[nH]c(=O)n2c(CC(=O)Nc3ccccc3)cnc12`, the cytotoxicity at 70.5 h was -15.7%.

On to `CN(CCc1ccccn1)C(=O)Nc1cccnc1N1CCCC1`, for which the cytotoxicity at 70.5 h was determined as 11.3%.

`CCc1nc(C)c([C@H]2CN(C)C[C@@H]2C(=O)NCc2ccccc2OC)[nH]1`: the cytotoxicity at 70.5 h was -2.21%.

Turning to `CNC1CCCN(Cc2noc(C3CC3)n2)C1` (stereo not drawn), the cytotoxicity at 70.5 h is -7.48%.

On to `CCC(C)NC(=O)c1sccc1-n1cnnn1` (stereo not drawn), for which the cytotoxicity at 70.5 h came out at 27.2%.

In the case of `CN1CCOC(CNCc2csc(C3CCCC3)n2)C1` (stereo not drawn), the cytotoxicity at 70.5 h is -1.7%.

On to `CCc1noc(C(C)N2CCN(Cc3ncc(C(C)(C)C)o3)CC2)n1` (stereo not drawn), for which the cytotoxicity at 70.5 h is 11.8%.

As to `CC(C)N(Cc1ccccn1)C(=O)CCOc1cccc(F)c1`, the cytotoxicity at 70.5 h is -4.61%.

Regarding `Cc1nc(C)n(CC(C)C(=O)N2CCCN(C3CCCC3)CC2)n1` (stereo not drawn), the cytotoxicity at 70.5 h was -6.07%.

Consider `O=C(N[C@@H]1CN(CCc2ccc(F)cc2)C[C@H]1O)c1cscn1`, for which the cytotoxicity at 70.5 h is -6.14%.

Turning to `Cc1ccc(-c2c(C(=O)NC3CCN(C)CC3)csc2C)cc1`, the cytotoxicity at 70.5 h is -9.95%.

`O=C(c1cccs1)N1CC[C@@H](N2CCOCC2)[C@@H]1Cc1ccccc1`: the cytotoxicity at 70.5 h is -15.7%.

As for `NC(=O)NC(=O)CCN1CCCC1c1nc(C2CCCCC2)co1` (stereo not drawn), the cytotoxicity at 70.5 h is 13.4%.

Consider `Cc1cnc(-c2nc(O)c3c(n2)CN(C(=O)C2CCCC2)CC3)cn1`, for which the cytotoxicity at 70.5 h is -1.77%.

As for `CNc1cc(C2CCCN(Cc3ccccc3OCC(=O)O)C2)ccn1` (stereo not drawn), the cytotoxicity at 70.5 h was -8.72%.

Turning to `FC(F)(F)c1cccc(C2(CNCc3ccncc3)CCOCC2)c1`, the cytotoxicity at 70.5 h was 6.55%.

Take `CCc1ccc(S(=O)(=O)N2CCCC(c3ncc[nH]3)C2)s1` (stereo not drawn): the cytotoxicity at 70.5 h is -4.54%.

For `CCCc1nnc(N(C)CC2CCN(CC(C)C)CC2)o1`, the cytotoxicity at 70.5 h was -7.76%.

As for `Cc1cc2[nH]c(=O)c(=O)[nH]c2cc1S(=O)(=O)NC1CCC(C)CC1` (stereo not drawn), the cytotoxicity at 70.5 h was -5.16%.

Regarding `CN(C)C(CNC(=O)c1nc(N2CCCC2)ncc1Cl)c1ccco1` (stereo not drawn), the cytotoxicity at 70.5 h was -17.5%.

With `Cc1nnc([C@@H]2C[C@H]3CN(C(=O)c4sccc4C)C[C@H]3O2)[nH]1`, the cytotoxicity at 70.5 h was -8.24%.

Consider `CCN1CCC(NC(=O)Cc2csc(C(C)(C)C)n2)CC1`, for which the cytotoxicity at 70.5 h worked out at 24.8%.

Turning to `CCN(C)CC1CCN(C(=O)Nc2ccc(-c3csnn3)cc2)C1` (stereo not drawn), the cytotoxicity at 70.5 h is -5.78%.

`Cc1nc(C(C)C)sc1C(=O)N1CCN(C2CN3CCC2CC3)CC1` (stereo not drawn): the cytotoxicity at 70.5 h is -6.54%.

As for `COc1nn(C)c2c1CCCN(C(=O)c1c[nH]cn1)C2`, the cytotoxicity at 70.5 h was -1.78%.

Take `CN1C(=O)CCc2cc(NC(=O)C3CC3)ccc21`: the cytotoxicity at 70.5 h amounted to 10.6%.

With `CC(C)(C)c1cnc(CN2CCC(NC(=O)NC3CCCCC3)CC2)o1`, the cytotoxicity at 70.5 h turned out to be 1.07%.

On to `Cc1nn(CCNC(C)Cn2cncn2)c(C)c1Cl` (stereo not drawn), for which the cytotoxicity at 70.5 h turned out to be 7.1%.

With `CCOc1c(F)cccc1C(=O)N(c1cccnc1)C(C)C`, the cytotoxicity at 70.5 h was -3.95%.

Take `O=C(C1CC1)N1CCCC(C2=Nc3ccccc3S(=O)(=O)N2)C1` (stereo not drawn): the cytotoxicity at 70.5 h is -4.52%.

`CC1=N[C@@]2(CC[C@@H]3CN(C(=O)NCC(C)C)C[C@@H]32)C(=O)N1CC(C)C`: the cytotoxicity at 70.5 h stood at 12.3%.

With `Cc1nc(CN)cc(N2CCC(O)(c3ccc(Cl)cc3)CC2)n1`, the cytotoxicity at 70.5 h is -1.91%.

Take `COc1cc2c(cc1OC)CN(C(=O)NC(C)c1nncn1C)CC2` (stereo not drawn): the cytotoxicity at 70.5 h came out at 26.1%.

Regarding `O=C(COc1ccccc1)N1C[C@@H](O)[C@H](N2CCCC2)C1`, the cytotoxicity at 70.5 h is -12.1%.

Take `NCCn1cc(C(=O)N2CCNC(=O)C2c2cccc(F)c2)nn1` (stereo not drawn): the cytotoxicity at 70.5 h was -11.9%.

Take `COc1ccc(C(=O)N2C[C@H]3CC[C@@H]2CN(C)C3)cc1Cl`: the cytotoxicity at 70.5 h turned out to be 47.4%.

Turning to `O=C(NCc1cc(F)cc(Br)c1)C1(O)CCSCC1`, the cytotoxicity at 70.5 h is -4.03%.

As to `Cc1cc(NC(=O)N(CCC#N)CCCN(C)C)ccc1F`, the cytotoxicity at 70.5 h is -2.44%.

For `CC(C)n1cnc(C2CN(C)c3ccc(C(=O)NC4CCCC4)cc32)n1` (stereo not drawn), the cytotoxicity at 70.5 h is -5.54%.

Consider `CN(C)CC1(O)CCN(C(=O)c2cnc(CN3CCCC3)s2)C1` (stereo not drawn), for which the cytotoxicity at 70.5 h stood at 0.326%.

Turning to `CCCN1CCC(N2CCN(c3cc(C)nc(COC)n3)CC2)CC1`, the cytotoxicity at 70.5 h turned out to be 3.64%.

Take `CC1COCCN1C(=O)COc1ccc(Oc2ccccn2)cc1` (stereo not drawn): the cytotoxicity at 70.5 h was determined as 1.4%.

On to `CNC(=O)c1ccc(CN(C(C)C)C(C)C)o1`, for which the cytotoxicity at 70.5 h is -4.83%.

With `NC(=O)CSCC(=O)NC1(c2cccc(Cl)c2)CC1`, the cytotoxicity at 70.5 h turned out to be 2.26%.

Turning to `CCOc1ccc2[nH]c(=O)c(CN3CCCCC3C)cc2c1` (stereo not drawn), the cytotoxicity at 70.5 h was -3.42%.

For the molecule `CCN1CCN(CC(=O)N2CCOC(Cc3ccc(OC)cc3)C2)CC1` (stereo not drawn), the cytotoxicity at 70.5 h is -16%.

`CN(C)c1nccc(N2CCO[C@H]3CN(Cc4nccn4C)C[C@H]32)n1`: the cytotoxicity at 70.5 h was -0.595%.

Regarding `CCNc1ncc(C(=O)NCc2csc(-c3ncccn3)n2)cn1`, the cytotoxicity at 70.5 h worked out at 3.46%.

As to `CCNC(=O)c1nc2c(s1)CCCN2S(C)(=O)=O`, the cytotoxicity at 70.5 h was 28.7%.

On to `CSc1ccc(OCCN2CCC(n3cncn3)CC2)cc1`, for which the cytotoxicity at 70.5 h is -13.7%.

Turning to `Cn1ncc2c(N3CCS(=O)(=O)CC3)nc(-c3cccnc3)nc21`, the cytotoxicity at 70.5 h was found to be 6.33%.

Consider `CC(=O)C1(c2ccccc2)CCN(C(=O)C2CNCCO2)CC1` (stereo not drawn), for which the cytotoxicity at 70.5 h was -7.25%.

For `Cc1n[nH]c(C)c1C1COCCN1C(=O)Cc1cccc(F)c1` (stereo not drawn), the cytotoxicity at 70.5 h is -4.4%.

Turning to `CNC(=O)c1cnc(/C=C/c2cc(OC)cc(OC)c2)s1`, the cytotoxicity at 70.5 h stood at 17.6%.

Regarding `CN(C)CCO[C@H]1CN(Cc2ccoc2)[C@@H]2COC[C@H]12`, the cytotoxicity at 70.5 h came to 6.76%.

For the molecule `CC(C)CN(C)S(=O)(=O)c1ccc(Cl)cc1C#N`, the cytotoxicity at 70.5 h was 34.3%.

For `Cc1csc(N2CCCN(C(=O)C3(C#N)CCCC3)CC2)n1`, the cytotoxicity at 70.5 h was -8.33%.

Take `O=C1CCSCC(C(=O)N2CCN(C3CCCCC3)CC2)N1` (stereo not drawn): the cytotoxicity at 70.5 h came out at 0.692%.

For the molecule `CCS(=O)(=O)N1C[C@@H](O)[C@H](Oc2cccc(F)c2)C1`, the cytotoxicity at 70.5 h is -9.71%.

Take `CCN(CC)Cc1cn2c(n1)CN(C1CCOC1)CC2` (stereo not drawn): the cytotoxicity at 70.5 h was -4.42%.

`CC(C)CN1CCC(c2nc3c([nH]2)CC(C)(C)CNC3=O)C1` (stereo not drawn): the cytotoxicity at 70.5 h is -9.67%.

On to `Cc1cc(C)n(CC2CCCN2C(=O)c2ccnc(N(C)C)c2)n1` (stereo not drawn), for which the cytotoxicity at 70.5 h is 10.6%.

Consider `O=C(c1ccc2ncsc2c1)N1CCC(C(=O)O)(n2cccn2)CC1`, for which the cytotoxicity at 70.5 h is -8.58%.

As to `CCOCCN1CCN(Cc2nnc(C3CC3)o2)CC1`, the cytotoxicity at 70.5 h was -2.06%.

These data come from ChEMBL document CHEMBL3507680, “University of Dundee, Gates Library screen for HepG2 cell viability”.
